Test results taken from patent publication US7566713B2, “Immuno inhibitory heterocyclic compounds” (Medigene Limited, priority 2004, dated 2009).

Biological target: T1, CD80-CD28 interaction (Homo sapiens, UniProt P33681)
T1 sequence (P33681 35-242 limits assumed): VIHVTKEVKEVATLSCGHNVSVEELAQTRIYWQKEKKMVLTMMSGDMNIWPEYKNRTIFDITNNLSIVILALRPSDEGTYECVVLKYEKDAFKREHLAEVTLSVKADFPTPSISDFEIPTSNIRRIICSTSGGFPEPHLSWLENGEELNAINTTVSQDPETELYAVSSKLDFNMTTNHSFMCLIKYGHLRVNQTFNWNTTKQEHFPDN
Experiment: cell free Homogenous Time Resolved Fluorescence (TRFret) assay, inhibition of the CD80-CD28 interaction
Assay type: binding
Conditions: HTRF assay; concentration series 100 μM-1.7 nM; 4 hours at room temperature
Procedure: The examples described above were tested in a cell free Homogenous Time Resolved Fluorescence (TRFret) assay to determine their activity as inhibitors of the CD80-CD28 interaction.
In the assay, europium and allophycocyanin (APC) are associated with CD28 and CD80 indirectly (through antibody linkers) to form a complex, which brings the europium and APC into close proximity to generate a signal. The complex comprises the following six proteins: fluorescent label 1, linker antibody 1, CD28 fusion protein, CD80 fusion protein, linker antibody 2, and fluorescent label 2. The table below describes these reagents in greater detail.
On formation of the complex, europium and APC are brought into proximity and a signal is generated.
Non-specific interaction was measured by substituting a mouse Fab fragment (C215) for the CD80 mouse Fab fragment fusion protein (1.9 μg/ml). The assay was carried out in black 384 well plates in a final volume of 30 μl. Assay buffer: 50 mM Tris-HCl, 150 mM NaCl pH7.8, containing 0.1% BSA (w/v) added just prior to use.
Compounds were added to the above reagents in a concentration series ranging between 100 μM-1.7 nM. The reaction was incubated for 4 hours at room temperature. Dual measurements were made using a Wallac Victor 1420 Multilabel Counter. First measurement: excitation 340 nm, emission 665 nm, delay 50 μs, window time 200 μs. second measurement: excitation 340 nm, emission 615 nm, delay 50 μs, window time 200 μs. Counts were automatically corrected for fluorescence crossover, quenching and background.

Row | EC50 [µM] | SMILES
1 | 0.101 | O=C(NCCCNC1CCCCC1)c1ccc(-n2[nH]c3c4c(nnc3c2=O)CCCC4)cc1 [Example 4, N-(3-Cyclohexylamino-propyl)-4-(3-oxo-1 ,3,6,7,8,9-hexahydro-pyrazolo[4,3-c]cinnolin-2-yl)-benzamide]
2 | 0.093 | CN1C(C)(C)CC(NC(=O)c2ccc(-n3[nH]c4c5c(nnc4c3=O)CCCC5)cc2)CC1(C)C [Example 6, 4-(3-Oxo-1,3,6,7,8,9-hexahydro-pyrazolo[4,3-c]cinnolin-2-yl)-N-(1,2,2,6,6-pentamethyl-piperidin-4-yl)-benzamide]
3 | 0.06 | O=C(NCCCCN1CCCC1)c1ccc(-n2[nH]c3c4c(nnc3c2=O)CCCC4)cc1 [Example 5, 4-(3-Oxo-1,3,6,7,8,9-hexahydro-pyrazolo[4,3-c]cinnolin-2-yl)-N-(4-pyrrolidin-1-yl-butyl)-benzamide]

Continued, compound first:

Row | SMILES | EC50 [µM]
4 | O=C(O)c1ccc(-n2[nH]c3c4c(nnc3c2=O)CCCC4)cc1 [Example 1] | > 10
5 | O=C(NCC(F)F)c1ccc(-n2[nH]c3c4c(nnc3c2=O)CCCC4)cc1 [Example 3, N-(2,2-Difluoro-ethyl)-4-(3-oxo-1 ,3,6,7,8,9-hexahydro-pyrazolo[4,3-c]cinnolin-2-yl)-benzamide] | 0.79
6 | CN(C)CCCNC(=O)c1ccc(-n2[nH]c3c4c(nnc3c2=O)CCCC4)cc1 [Example 2, N-(3-Dimethylamino-propyl)-4-(3-oxo-1,3,6,7,8,9-hexahydro-pyrazolo[4,3-c]cinnolin-2-yl)-benzamide] | 0.063
